Source: publication PMC8788626 (Lung cancer (Amsterdam, Netherlands), 2017)
Several values for one entry are separate records, joined by “and”; a condition that tells them apart may be missing. Identical values can stand only once.

What was measured:
[1] = Plasma pharmacokinetics of dacomitinib and metabolite PF-05199265; assay type: in vivo, patients; conditions: for Pre-dose (0 h) plasma concentration, mean (CV%) / Pre-dose (0 h) plasma concentration, median: Cycle 0, Day 4, 45 mg dacomitinib q12 h
QT interval = assay: ECG analysis of QTc interval change from baseline; assay type: in vivo, patients
EGFR-mutant lung cancer = conditions: first-line therapy, standard daily dosing, ARCHER 1050; cited from earlier work
EGFR-mutant lung cancers = conditions: first line, subset with EGFR-mutant lung cancers; cited from earlier work
[2] = system: patients with advanced NSCLC; conditions: in vivo
[3] = system: T790M-negative, otherwise molecularly unselected advanced NSCLC; assay: Phase 2 study of intermittent pulse dacomitinib, efficacy, Cohort B; assay type: in vivo, patients; conditions: 95% CI 1.0–3.3 months
[4] = continuous daily dosing; cited from earlier work
[5] = system: lung cancers harboring EGFR T790M; assay type: in vivo, patients; conditions: Cohort A
[6] = Cycle 0, Day 4, following 6 doses (q12 h) of 45 mg dacomitinib
[7] = Cycle 1, Day 1, following 3 day washout after 6 doses (q12 h) of 45 mg dacomitinib
[8] = Cycle 1, Day 4, following 5 doses (q12 h) of 60 mg dacomitinib

## O=C(/C=C/CN1CCCCC1)Nc1cc2c(Nc3ccc(F)c(Cl)c3)ncnc2cc1O [PF-05199265]
[1]
  Pre-dose (0 h) plasma concentration, mean (CV%): 7.1 ng/mL and 7.1 (161) ng/mL
  Pre-dose (0 h) plasma concentration, median: 4.6 ng/mL
[1]; [6]
  AUC0–10, mean (CV%): 75.0 (148) ng h/mL
  AUC0–10, median: 50.8 ng·h/mL
  Cmax, mean (CV%): 8.5 (150) ng/mL
  Cmax, median: 5.9 ng/mL
  Cmin, mean (CV%): 6.8 (157) ng/mL
  Cmin, median: 4.5 ng/mL
  Tmax, median (minimum–maximum): 5.6 (0–11.0) hr
[1]; [7]
  Pre-dose plasma concentration, mean (CV%): 3.8 (83) ng/mL
  Pre-dose plasma concentration, median: 2.8 ng/mL
[1]; [8]
  Pre-dose plasma concentration, mean (CV%): 9.0 (93) ng/mL
  Pre-dose plasma concentration, median: 7.43 ng/mL

## COc1cc2ncnc(Nc3ccc(F)c(Cl)c3)c2cc1NC(=O)/C=C/CN1CCCCC1 [dacomitinib]
QT interval; all Cycle 0 day 4 time points, 45 mg q12 h
  upper limits of the 95% CI for the mean change from baseline in QTc (QTcB, QTcF, QTcS): < 10 ms
QT interval; at exposures comparable to steady state of 45 mg daily regimen
  effect on cardiac repolarization: no effects on cardiac repolarization
EGFR-mutant lung cancer
  median progression-free survival: 14.7 months
EGFR-mutant lung cancers
  estimated median progression-free survival: 18.2 months
  overall response rate: 76%
[2]; human
  Grade 3 treatment-emergent lymphopenia: 13.2%
  frequency of the most frequent treatment-related toxicities (diarrhea, rash, stomatitis, nausea, dry skin, paronychia, fatigue, decreased appetite): > 20 % of patients
  treatment-related serious adverse events: dehydration: 2
  treatment-related serious adverse events: diarrhea: 2
  treatment-related serious adverse events: nausea: 1
[2]
  Grade 3 hypermagnesemia, patients: three
  number of treatment-related serious adverse events: five
  patients who discontinued study therapy due to a treatment-related adverse event: No patients
  patients with at least one treatment-related adverse event: All patients
  patients with treatment-related serious adverse events: three
  treatment-related cardiac adverse events: no treatment-related cardiac adverse events
[3]
  median PFS: 1.6 months
[1]
  Pre-dose (0 h) plasma concentration, mean (CV%): 76.4 ng/mL
  Pre-dose (0 h) plasma concentration, median: 68.4 ng/mL
[1]; listed as Dacomitinib
  Pre-dose (0 h) plasma concentration, mean (CV%): 76.4 (43) ng/mL
[1]; [6]
  Cmin, mean (CV%): 71.3 (39) ng/mL
  Cmin, median: 65.6 ng/mL
[1]; [7]
  Pre-dose plasma concentration, mean (CV%): 32.1 (65) ng/mL
  Pre-dose plasma concentration, median: 26.9 ng/mL
[1]; [8]
  Pre-dose plasma concentration, mean (CV%): 108.1 (39) ng/mL
  Pre-dose plasma concentration, median: 100 ng/mL
[1]; human, plasma, oral, 45 mg
  Tmax: 6.1 h
[1]; human, plasma, oral, 45 mg, AUC0–10, mean (CV%), Cycle 0, Day 4, following 6 doses (q12 h) of 45 mg dacomitinib
  AUC(0-t): 794 ng·h/mL
[1]; human, plasma, oral, 45 mg, AUC0–10, median, Cycle 0, Day 4, following 6 doses (q12 h) of 45 mg dacomitinib
  AUC(0-t): 728 ng·h/mL
[1]; human, plasma, oral, 45 mg, mean (CV%), Cycle 0, Day 4, following 6 doses (q12 h) of 45 mg dacomitinib
  Cmax: 96.8 ng/mL
[1]; human, plasma, oral, 45 mg, median, Cycle 0, Day 4, following 6 doses (q12 h) of 45 mg dacomitinib
  Cmax: 90.7 ng/mL
[4]
  maximum tolerated dose: 45 mg daily
[5]; 16 patients, 95% CI 0.2%–30.2%, p-value = 0.15
  ORR (overall response rate): 6.3%
[5]; 95% CI 1.4–4.4 months
  median PFS: 2.3 months
